We go through seven molecules from patent US12170135B2, “Systems and methods for evaluating query perturbations” (Recursion Pharmaceuticals, Inc., priority 2019, dated 2024).

For data set [1], the system named is NF2 deficiency in primary human cells. In words: Primary drug screens on NF2 loss-of-function model. As to conditions: for rescue of NF2 loss-of-function phenotype: primary screen. The class given is cell-based. The source says: To identify novel and effective treatments for NF2, a loss-of-function model of the disease in a primary human cells and screened for molecules that rescue the disease-specific phenotype. […] These figures illustrate results from a series of primary drug screens to identify drug candidates for NF2 from a library of approximately 2000 small molecules. Scores for control perturbations (largely clustered in region 1102), test perturbations (largely clustered in region 1104), and query perturbations (largely clustered in region 1106), are shown in the plots. A small number of hits were algorithmically selected based on their effects in the assay and used for further screening.

Data set [2] concerns SMN protein. As to conditions: cell-based assays and patients; cited from earlier work.
In data set [3] the test system is SMA patients. The following applies: clinical trials; cited from earlier work.
Data set [4] has as its system ATM deficiency in A549 cells.
Description: (§1) Hits were algorithmically selected based on effect and screened with a higher replicate count in a tertiary screen. […] The length of the wider green bars, such as bar 910, represents changes in individual features of increasing or decreasing magnitude that best represent the ATM disease signature. The impact of each drug on individual features is overlaid in a second, narrower red shaded bar, such as bar 911. […] The order of the features was randomized between individual plots, and individual feature labels are omitted. […] Western blots probed for ATM and phosphorylated Chk2. […] The lower plots represent quantification of phosphorylated Chk2 from the Western Blot, n=3. H=Healthy; *denotes p<0.05, two-sided paired ratio t-test.
(§2) Small molecule compounds were then tested on the A-T disease model using the screening methods described herein.
The subject of data set [5] is patients with NF2. The following applies: Phase 2 study; cited from earlier work.
Data set [6] concerns Chk2 phosphorylation in ATM knockdown A549 cells. The data set can be described thus: Western blot for phosphorylated Chk2 in siRNA transfected A549 cells treated with H2O2. In kind it is cell-based. The following applies: H2O2 treatment. The method, then: Glucocorticoids are identified by the dashed red polygon 901. […] Western blots probed for ATM and phosphorylated Chk2.
To further validate these compounds, disease-specific studies were performed. In response to DNA damage, ATM stimulates phosphorylation of a host of target proteins, including the checkpoint kinase Chk2. As expected, it was observed that siRNA-mediated knockdown of ATM mRNA in the A549 model cell-line suppressed phosphorylation of Chk2 after H2O2 treatment. Moreover, most glucocorticoids tested restored Chk2 phosphorylation to nearly 50% of control levels, with betamethasone and dexamethasone showing the least rescue (FIG. 9C).
Background: A western blot detects proteins with antibodies after separation by electrophoresis.

Data set [7] concerns Chk2 phosphorylation in primary fibroblasts derived from a patient with A-T. In words: Western blot for phosphorylated Chk2 in primary fibroblasts from a patient with A-T. The following applies: H2O2. In kind it is cell-based, human.
In data set [8] the test system is ATM deficiency in A549 cells. In words: Cell Painting phenotypic screen on the A-T disease model (on-target/off-target scores). As to conditions: ATM disease signature, FIG. 9B.
Description: as §1, §2

Structures are written as SMILES. “Also recorded” adds a separate entry of the source.

With `CNC(=O)c1cccc(-c2ccc3c(N4CCOC[C@@H]4C)nc(N4CCOC[C@@H]4C)nc3n2)c1` [AZD2014], in data set [1], the “side-effect profile in NF2 screen” value was “elevated side-effect profile compared to another highly selective mTOR inhibitor” and the “rescue of NF2 loss-of-function phenotype” value was “strong rescue”.
`CCN(CC)CCNC(=O)c1c(C)[nH]c(/C=C2\C(=O)Nc3ccc(F)cc32)c1C` [Sunitinib, sunitinib]: in data set [1], the “side-effect profile in NF2 screen” value is “minimal increase in side-effect profile”.
Consider `CCCC(CCC)C(=O)O` [Valproic acid], for which the SMN protein level result in data set [2] was “increases full length SMN protein”. Besides, the “clinical improvement in SMA” value in data set [3] was “modest clinical improvement”.
Consider `C[C@H]1C[C@H]2[C@@H]3CCC4=CC(=O)C=C[C@]4(C)[C@@]3(F)[C@@H](O)C[C@]2(C)[C@@]1(O)C(=O)CO` [betamethasone], for which the “side effect profile (off-target score) in the screen” value in data set [4] was “greater side effects”.
Regarding `CO[C@H]1C[C@@H]2CC[C@@H](C)[C@@](O)(O2)C(=O)C(=O)N2CCCC[C@H]2C(=O)O[C@H]([C@H](C)C[C@@H]2CC[C@@H](OCCO)[C@H](OC)C2)CC(=O)[C@H](C)/C=C(\C)[C@@H](O)[C@@H](OC)C(=O)[C@H](C)C[C@H](C)/C=C/C=C/C=C/1C` [everolimus], the “rescue of NF2 loss-of-function phenotype” value in data set [1] is “minimal efficacy”. The “clinical efficacy in NF2 / meningioma” value in data set [5] is “failed to demonstrate efficacy”.
For the molecule `CS(=O)(=O)CCNCc1ccc(-c2ccc3ncnc(Nc4ccc(OCc5cccc(F)c5)c(Cl)c4)c3c2)o1` [lapatinib], in data set [5], the “clinical efficacy in NF2 / meningioma” value is recorded as “antitumor activity in a subset of patients” and the “tolerability in patients with NF2” value is given as “well tolerated”.
On to `C[C@@H]1C[C@H]2[C@@H]3CCC4=CC(=O)C=C[C@]4(C)[C@@]3(Cl)[C@@H](O)C[C@]2(C)[C@@]1(O)C(=O)CCl` [mometasone], for which the “rescue of Chk2 phosphorylation associated with ATM deficiency” value in data set [6] is given as “better rescue ATM deficiency”; in data set [6] (listed as Mometasone), “superior P-Chk2 rescue”. In data set [7], the “rescue of Chk2 phosphorylation in primary patient-derived cells” value is recorded as “dose-dependent rescue of Chk2 phosphorylation; also recorded: dose-dependent increase in Chk2 phosphorylation”. Besides, the “impact on the twenty most prominent phenotypic disease features” value in data set [8] is “rescues a subset of features”.
